Entries after “also recorded” stand apart in the source; their conditions may differ. Counter-ions that a name gives are not always drawn.
Tests used:
[1] = Physicochemical properties (Log P, pKa, solubility vs. pH) for PBPK model
Description: (§1) The physicochemical and biopharmaceutical properties for elacestrant dihydrochloride and its free base, elacestrant, were defined using a combination of in silico estimates from the ADMET Predictor® module that were based on the chemical structure, along with in vitro and in vivo data obtained from the literature and internal data. Table 5 summarizes the parameter values used for the elacestrant dihydrochloride […] pharmacokinetics (PBPK) model.
The solubility vs. pH profile is solved using conventional methods known to those in the art and using the measure pKa values for elacestrant (Table 5). The pHmax for elacestrant is 4.3. These values were used to model in vitro drug product dissolution. The in vivo solubility values of elacestrant dihydrochloride are calculated as a function of the volume administered and the food volume, where relevant.

[2] = Exposure-response (ER) analysis for PFS; type: in vivo, human; settings: non-parametric and parametric survival analysis
[3] = tested on: ER-positive (ER+) HER2-negative (HER2−) breast cancer cells; settings: at concentrations inducing degradation of ERα protein; cited from earlier work
[4] = tested on: ER+HER2-breast cancer models; settings: including models resistant to fulvestrant and CDK4/6 inhibitors and those harboring ESR1 mutations; cited from earlier work
[5] = Compressibility study (strain rate sensitivity); type: physicochemical
Protocol: To investigate the behavior of elacestrant dihydrochloride under mechanical stress, a compressibility study was performed. […] Thus, deformation was expected to be affected by speed. Crushing strength was rather low at slow speed and decreased as speed increased due to elastic recovery. […] The insights and recommendations from this work led to careful selection of excipients to keep tablet strength high for tablets with drug loads above 25%.

[6] = Dissolution in media of pH 1.2, 2.0 (QC), 4.5 and 6.8 with f2 analysis; type: physicochemical; settings: pH 6.8 (phosphate buffer); dihydrochloride
Protocol: Dissolution profiles for Formulation 2 at the target hardness (13.3 kP and 16.4 kP for 100 mg and 400 mg tablets, respectively), were generated using testing conditions that represented the physiological range of pH 1.2 (0.1 N HCl) to pH 6.8 (phosphate buffer), as well as in the QC medium (0.01 N HCl) and at pH 4.5 (acetate buffer). The dissolution profiles under these various conditions are shown in FIGS. 11A-D (100 mg tablets) and FIGS. 12A-D (400 mg tablets).
FIGS. 13A-D compare the dissolution profiles of the elacestrant dihydrochloride 100 mg drug product used in the Pivotal BE study under 4 different dissolution conditions. […] At the highest tested pH (pH 6.8) the solubility of the drug is so low that this test condition is not a reliable method for testing the dissolution of elacestrant dihydrochloride 100 mg tablets. The curves were compared using f2 analysis. […] Although the data at pH 6.8 also indicate the two curves are similar, the percent released was so low that this comparison was not of any value.

[7] = Human blood-to-plasma ratio; type: in vitro ADME; settings: blood and plasma, RAD1901-111, read-out: Human blood-to-plasma ratio, initial value
Description: as §1

[8] = Human effective jejunal permeability; settings: Caco-2, scaled from in vitro Caco2 data, read-out: Human effective jejunal permeability, initial value
Description: as §1

pHmax [1] | solubility ([1]; free base, pH = 10, read-out: Intrinsic solubility) [mg/mL] | strain rate sensitivity [5] [%] | logP [1] | solubility ([1]; 0.01 N HCl) | pKa ([1]; (A)) | pKa ([1]; (B), first) | pKa ([1]; (B), second) | solubility ([1]; salt, pH = 4.3, read-out: Intrinsic solubility) [mg/mL] | blood plasma ratio [7] | Papp [8] [×10⁻⁶ cm/s] | SMILES | exposure-response for PFS (progression-free survival) [2] | 17β-estradiol mediated cell proliferation [3] | antitumor activity [4] | solubility [6]
4.3 | 0.000115 |  |  |  |  |  |  |  |  |  | CCNCCc1ccc(CN(CC)c2cc(OC)ccc2[C@@H]2CCc3cc(O)ccc3C2)cc1 [Elacestrant] | no differences in PFS across the observed range of elacestrant exposures | inhibited 17β-estradiol mediated cell proliferation | demonstrated in vitro and in vivo antitumor activity | 
 |  | 15.5 | 5.56 | feely soluble | 12 | 6.39 | 7.74 | 39.4 | 0.701 | 32 | CCNCCc1ccc(CN(CC)c2cc(OC)ccc2[C@@H]2CCc3cc(O)ccc3C2)cc1 [Elacestrant Dihydrochloride, (6R)-6-(2-(N-(4-(2-(ethylamino)ethyl)benzyl)-N-ethylamino)-4-methoxyphenyl)-5,6,7,8-tetrahydronaphthalen-2-ol dihydrochloride] |  |  |  | significantly lower; also recorded: so low

— patent US20260199249A1, “SOLID ELACESTRANT DIHYDROCHLORIDE COMPOSITIONS, METHODS OF MAKING THE SAME, AND METHODS OF TREATMENT USING THE SAME” (BERLIN-CHEMIE AG, priority 2023, published 2026)
